Reference: patent publication US20250073209A1, “COVALENT TARGETING OF RhoA FOR CANCER THERAPY” (The University of Hong Kong, priority 2023, published 2025)

Experiments:
[1] = tested on: HT29 cells expressing RhoA WT; experiment: Wound healing assay on HT29 cells expressing RhoA WT; assay type: cell-based, human; conditions: 48 h
Procedure: For wound healing assay, HT29 cells were seeded in 90% confluency, a wound was scratched using a P-20 tip the next day. Cell debris was washed with PBS then aspirated. Then, complete DMEM medium with CL16 or Rhosin with corresponding concentration was added to the cells. Wound closure was recorded every 24 hours under light microscope with 10× objective and measurement of wound area was made by ImageJ.
The effects of CL16 in HT29 cells expressing RhoA WT protein and HT29 cells with RhoA C16 Å knock-in by CRISPR-Cas9 were investigated, respectively, to validate the molecular mechanism of RhoA inhibition and anti-cancer properties from CL16. […] HT29 cells expressing RhoA WT or C16 Å protein were incubated with solvent vehicle, CL16 or Rhosin in complete medium for 24 h. The cells were then washed, lysed, subjected to rhotekin pull-down and immunoblotted. […] Wound healing assay on HT29 cells expressing RhoA WT or C16 Å protein were incubated with solvent vehicle, CL16 or Rhosin in complete medium for 48 h (FIGS. 19A and 19B).

RhoA-GEF interactions = target: T1, RhoA-GEF interactions (Homo sapiens, UniProt P61586); experiment: Co-immunoprecipitation of GST-RhoA with GEF-containing cell lysates; assay type: biochemical; conditions: GST-RhoA with HEK293T cell lysates
T1 construct: host or cells: GEFs overexpressed in HEK293T lysates
Procedure: 10 μg of purified GST-RhoA was immobilized on Glutathione resin (Pierce) and incubated with CL16 in GTP-exchange buffer (20 mM HEPES, 150 mM NaCl, 5 mM MgCl2, pH 7.4) for 1 hour. Then, the mixture was centrifuged at 700g for 2 min and supernatant was discarded. 120 μg of total cell lysate with overexpression of GEF (Arhgefl p-115, Arhgefl2 LARG DH-PH domain, Arhgef13 Akap Lbc) was added to the resin. The mixture was put on an end-to-end rotator and incubated at 4° C. for 4 hours. The resin was then washed, eluted and subjected to immunoblotting.

RhoA = RhoA (Homo sapiens, UniProt P61586); experiment: RhoA-GTP rhotekin pull-down, serum starvation-re-stimulation; assay type: cell-based; parameters: endogenous in cells; host or cells: HCT116, HT29
Procedure: RhoA Pull-Down Activation Assay Biochem Kit (#BK036) was purchased from Cytoskeleton. According to the manufacturer's protocol, total cell lysate (0.5 mg/mL; 300 μL) was added to 7.5 μL of Rhotekin-Rho Binding Domain beads in 0.6 mL tubes. The solution mixture was incubated at 4° C. on an end-to-end rotator for 1 hour. Beads were washed with 500 μL of washing buffer once, then centrifuged at 5000g for 3 min and the supernatant was discarded. RhoA-GTP was then eluted in 2× laemmli buffer and resolved in 10% SDS-PAGE.
GTP loading onto RhoA is critical for the protein activation and mediating downstream signals. In view of the inhibitions of GDP-to-GTP exchange of RhoA by CL16 in vitro as discussed above, effects of CL16 on RhoA biology in colorectal cancer cells were examined. In the serum starvation-re-stimulation experiment, HCT116 cells were grown in serum-free medium with CL16, Rhosin or solvent control for 24 h, followed by stimulation with 10% FBS for 10 min. The cells were then lysed and the RhoA activity was assayed by the level of RhoA-GTP, which is the active form of RhoA. […] HT29 cells were incubated with solvent vehicle, CL16 or Rhosin in complete medium for 24 h. […] Confocal fluorescence images from HCT116 and HT29 cells expressing FRET RhoA-biosensor in the serum starvation-restimulation experiment were taken.

SL4 cells = experiment: MTT assay on mouse CRC cells SL4; assay type: cell-based; conditions: complete medium 48 h
Procedure: FIG. 13A is a graph showing the cell viability, which was examined by MTT assay. SL4 cells were treated with solvent vehicle or CL16 in complete medium for 48 h.
Antitumor effects of CL16 in an immunocompetent, orthotopic mouse CRC model, which was established by the inoculation of mouse CRC cells, SL4, intracecally were examined (FIG. 20). […] Immunohistochemistry staining of CD3, CD4, CD8, Ki67 was conducted, with cleaved caspase-3 and VEGFR2 on tumor tissues from the vehicle- or CL16-treated mice.

CRCs = experiment: MTT assay on CRC cells; assay type: cell-based, human; conditions: 48 h
Procedure: HCT116 cells was seeded at 2,500 cells/well; HT29, LOVO and SW620 cells were seeded at 4,000 cells/well; CCD-18Co cells were seeded at 10,000/well; and SW480 cells were seeded at 12,000 cells/well in 96 well plate in triplicates. Cells were treated with a concentration gradient of CL16 for 48 hours. Then, cells were incubated with 10% 3-(4,5-Dimethylthiazol-2-yl)-2,5-diphenyltetrazolium bromide (MTT) solution ([…]) in 37° C. for 4 hours. Cells were then lyzed in 10% SDS in […] HCl. Absorbance of individual well was measured at 570 nm. IC50 values were analyzed by nonlinear best-fit regression using Prism Graphpad 9.
As discussed above, overexpression/hyperactivity of RhoA associated with poor prognosis and aggressive behaviors of CRCs (FIG. 8A). Thus, the anti-cancer and anti-metastatic properties of CL16 in CRCs were explored. First, it was confirmed that genetic knockdown of RhoA by siRNA slowed down colony formation and migration of CRCs by using staining (data not shown) and wound healing assay (FIG. 4A). MTT assay was used to determine cell viability of CRCs and normal colon fibroblast CCD-18Co cells treated with CL16 for 48 h (n=3 different biological replicates/group). A much lower expression level of RhoA in normal colon fibroblast CCD-18Co cells was also determined, as compared to CRCs, by western blotting (data not shown). […]

Chain of RhoA (P61586 whole entry, the tested form may be a part): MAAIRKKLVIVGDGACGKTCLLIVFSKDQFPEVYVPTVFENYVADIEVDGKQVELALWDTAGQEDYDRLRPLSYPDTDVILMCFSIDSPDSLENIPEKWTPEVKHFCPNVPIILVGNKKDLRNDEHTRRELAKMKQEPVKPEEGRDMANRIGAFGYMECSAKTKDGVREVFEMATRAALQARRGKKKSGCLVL
T1 sequence (P61586 whole entry): as the sequence (P61586 whole entry, the tested form may be a part) above

RhoA interactions with ARHGEF1, LARG DH-PH domain, AKAP13 and ARHGAP4s (RhoA-GEF interactions): disruption of RhoA interactions
RhoA-GTP level compared with Rhosin (RhoA; 10 μM CL16 vs 30 μM Rhosin): lower RhoA-GTP level
cellular RhoA-GTP level after serum stimulation vs solvent control (RhoA; HCT116, serum-free 24 h, 10% FBS 10 min): much lower cellular RhoA-GTP levels
Structure (SMILES): O=C(CCl)N1N=C(c2cc3ccccc3o2)CC1c1ccco1 (stereo not drawn) [CL16]
cell migration [1]: decrease in cell migration
viability of SL4 (SL4 cells): significantly decreased the viability
cytotoxicity (cell viability) (CRCs): cytotoxicity effects
